Source: ChEMBL document CHEMBL4507307 (2021)

How the values were obtained:
[1] = target: Alpha-2C adrenergic receptor (Homo sapiens) (UniProt P18825); conditions: Compound concentration 10.0 uM
[2] = target: Alpha-2A adrenergic receptor (Homo sapiens) (UniProt P08913); conditions: Compound concentration 10.0 uM
[3] = target: 5-hydroxytryptamine receptor 1A (Homo sapiens, UniProt P08908); experiment: GPCRScan assay: inhibition of 5-HT1A; parameters: radioligand conc. used [nm] 0.5 – 1.0, parental cells stable CHO
[4] = target: Alpha-1A adrenergic receptor (Homo sapiens, UniProt P35348); experiment: GPCRScan assay: inhibition of Alpha1A; parameters: radioligand conc. used [nm] 0.2 - 1.0, parental cells stable HEK
Rattus norvegicus = organism: Rattus norvegicus; conditions: Compound concentration 10.0 uM
[5] = target: T1, Dual specificity tyrosine-phosphorylation-regulated kinase 1B (Homo sapiens, UniProt Q9Y463); experiment: NanoBRET (SGC Frankfurt) (DYRK1B)
D(1A) dopamine receptor = D(1A) dopamine receptor (Homo sapiens, UniProt P21728); experiment: GPCRScan assay: inhibition of D1; parameters: radioligand conc. used [nm] 0.6 – 1.3, parental cells HEKT
[6] = target: 5-hydroxytryptamine receptor 6 (Homo sapiens) (UniProt P50406); conditions: Compound concentration 10.0 uM
[7] = target: Sigma non-opioid intracellular receptor 1 (Homo sapiens, UniProt Q99720); experiment: GPCRScan assay: inhibition of Sigma 1; parameters: radioligand conc. used [nm] 4.0 – 5.0, parental cells HEKT
[8] = target: Dual specificity protein kinase CLK2 (Homo sapiens, UniProt P49760); experiment: NanoBRET (SGC Frankfurt) (CLK2)
[9] = target: Beta-3 adrenergic receptor (Homo sapiens, UniProt P13945); experiment: GPCRScan assay: inhibition of Beta3; parameters: radioligand conc. used [nm] 0.2 – 0.5, parental cells HEK Flp-In
[10] = target: Sigma intracellular receptor 2 (Homo sapiens, UniProt Q5BJF2); experiment: GPCRScan assay: inhibition of Sigma 2; parameters: radioligand conc. used [nm] 5.0, parental cells HEKT
[11] = target: Alpha-1D adrenergic receptor (Homo sapiens) (UniProt P25100); conditions: Compound concentration 10.0 uM
[12] = target: Kappa-type opioid receptor (Homo sapiens, UniProt P41145); experiment: GPCRScan assay: inhibition of KOR; parameters: radioligand conc. used [nm] 0.6 – 1.2, parental cells stable HEK
[13] = target: Cyclin-dependent kinase 1/cyclin B (Homo sapiens) (UniProt P06493+P14635+Q8WWL7+O95067); experiment: CDK1/cyclin B Kinase activity screen; assay type: protein-complex assay
[14] = target: Ephrin type-A receptor 1 (Homo sapiens) (UniProt P21709); experiment: EPHA1 Kinase activity screen
[15] = target: Mitogen-activated protein kinase 9 (Homo sapiens) (UniProt P45984); experiment: MAPK9 (JNK2) Kinase activity screen
[16] = target: Hepatocyte growth factor receptor (Homo sapiens) (UniProt P08581); experiment: MET (cMet) Kinase activity screen; conditions: Compound concentration 1.0 uM
[17] = target: Mitogen-activated protein kinase 11 (Homo sapiens) (UniProt Q15759); experiment: MAPK11 (p38 beta) Kinase activity screen
[18] = target: Aurora kinase A (Homo sapiens) (UniProt O14965); experiment: AURKA (Aurora A) Kinase activity screen
[19] = target: cAMP-dependent protein kinase catalytic subunit alpha (Homo sapiens) (UniProt P17612); experiment: PRKACA (PKA) Kinase activity screen
[20] = target: Interleukin-1 receptor-associated kinase 4 (Homo sapiens) (UniProt Q9NWZ3); experiment: IRAK4 Kinase activity screen
[21] = target: Rho-associated protein kinase 1 (Homo sapiens) (UniProt Q13464); experiment: ROCK1 Kinase activity screen
[22] = target: Dual specificity tyrosine-phosphorylation-regulated kinase 3 (Homo sapiens) (UniProt O43781); experiment: DYRK3 Kinase activity screen
[23] = target: RAC-alpha serine/threonine-protein kinase (Homo sapiens) (UniProt P31749); experiment: AKT1 (PKB alpha) Kinase activity screen; conditions: Compound concentration 0.1 uM
[24] = target: CDK7/Cyclin H/MNAT1 (Homo sapiens) (UniProt P51946+P50613+P51948); experiment: CDK7/cyclin H/MNAT1 Kinase activity screen; assay type: protein-complex assay
[25] = target: Serine/threonine-protein kinase PLK1 (Homo sapiens) (UniProt P53350); experiment: PLK1 Kinase activity screen
[26] = target: Mitogen-activated protein kinase 1 (Homo sapiens) (UniProt P28482); experiment: MAPK1 (ERK2) Kinase activity screen
[27] = target: Inhibitor of nuclear factor kappa-B kinase subunit beta (Homo sapiens) (UniProt O14920); experiment: IKBKB (IKK beta) Kinase activity screen
[28] = target: Casein kinase I isoform delta (Homo sapiens) (UniProt P48730); experiment: CSNK1D (CK1 delta) Kinase activity screen
[29] = target: Aurora kinase B (Homo sapiens) (UniProt Q96GD4); experiment: AURKB (Aurora B) Kinase activity screen
[30] = target: Mitogen-activated protein kinase 3 (Homo sapiens) (UniProt P27361); experiment: MAPK3 (ERK1) Kinase activity screen
[31] = target: SRSF protein kinase 2 (Homo sapiens) (UniProt P78362); experiment: SRPK2 Kinase activity screen
[32] = target: Cyclin-dependent kinase 5/CDK5 activator 1 (Homo sapiens) (UniProt Q00535+Q15078); experiment: CDK5/p25 Kinase activity screen; assay type: protein-complex assay
[33] = target: Fibroblast growth factor receptor 1 (Homo sapiens) (UniProt P11362); experiment: FGFR1 Kinase activity screen
[34] = target: Homeodomain-interacting protein kinase 2 (Homo sapiens) (UniProt Q9H2X6); experiment: HIPK2 Kinase activity screen
[35] = target: Mitogen-activated protein kinase 14 (Homo sapiens) (UniProt Q16539); experiment: MAPK14 (p38 alpha) Kinase activity screen
[36] = target: PI3-kinase p110-alpha/p85-alpha (Homo sapiens) (UniProt P27986+P42336); experiment: PIK3CA/PIK3R1 (p110 alpha/p85 alpha) Kinase activity screen; assay type: protein-complex assay
[37] = target: Serine/threonine-protein kinase B-raf (Homo sapiens) (UniProt P15056); experiment: BRAF Kinase activity screen
[38] = target: T1, Dual specificity tyrosine-phosphorylation-regulated kinase 1B; experiment: DYRK1B Kinase activity screen
[39] = target: Ephrin type-A receptor 2 (Homo sapiens) (UniProt P29317); experiment: EPHA2 Kinase activity screen
[40] = Compound concentration 0.123 uM

Sequence of Mitogen-activated protein kinase 1 (Homo sapiens) (P28482 whole entry): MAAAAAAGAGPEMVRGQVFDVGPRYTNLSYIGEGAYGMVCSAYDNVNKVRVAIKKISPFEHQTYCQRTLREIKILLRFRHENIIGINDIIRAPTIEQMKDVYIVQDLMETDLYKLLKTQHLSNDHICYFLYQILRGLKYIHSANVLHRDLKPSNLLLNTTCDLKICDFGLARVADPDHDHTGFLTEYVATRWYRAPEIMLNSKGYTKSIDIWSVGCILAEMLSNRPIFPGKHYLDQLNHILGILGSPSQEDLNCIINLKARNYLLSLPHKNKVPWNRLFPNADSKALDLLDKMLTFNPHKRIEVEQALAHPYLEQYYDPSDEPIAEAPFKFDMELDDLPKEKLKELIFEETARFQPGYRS
Sequence of Homeodomain-interacting protein kinase 2 (Homo sapiens) (Q9H2X6 whole entry, looked up): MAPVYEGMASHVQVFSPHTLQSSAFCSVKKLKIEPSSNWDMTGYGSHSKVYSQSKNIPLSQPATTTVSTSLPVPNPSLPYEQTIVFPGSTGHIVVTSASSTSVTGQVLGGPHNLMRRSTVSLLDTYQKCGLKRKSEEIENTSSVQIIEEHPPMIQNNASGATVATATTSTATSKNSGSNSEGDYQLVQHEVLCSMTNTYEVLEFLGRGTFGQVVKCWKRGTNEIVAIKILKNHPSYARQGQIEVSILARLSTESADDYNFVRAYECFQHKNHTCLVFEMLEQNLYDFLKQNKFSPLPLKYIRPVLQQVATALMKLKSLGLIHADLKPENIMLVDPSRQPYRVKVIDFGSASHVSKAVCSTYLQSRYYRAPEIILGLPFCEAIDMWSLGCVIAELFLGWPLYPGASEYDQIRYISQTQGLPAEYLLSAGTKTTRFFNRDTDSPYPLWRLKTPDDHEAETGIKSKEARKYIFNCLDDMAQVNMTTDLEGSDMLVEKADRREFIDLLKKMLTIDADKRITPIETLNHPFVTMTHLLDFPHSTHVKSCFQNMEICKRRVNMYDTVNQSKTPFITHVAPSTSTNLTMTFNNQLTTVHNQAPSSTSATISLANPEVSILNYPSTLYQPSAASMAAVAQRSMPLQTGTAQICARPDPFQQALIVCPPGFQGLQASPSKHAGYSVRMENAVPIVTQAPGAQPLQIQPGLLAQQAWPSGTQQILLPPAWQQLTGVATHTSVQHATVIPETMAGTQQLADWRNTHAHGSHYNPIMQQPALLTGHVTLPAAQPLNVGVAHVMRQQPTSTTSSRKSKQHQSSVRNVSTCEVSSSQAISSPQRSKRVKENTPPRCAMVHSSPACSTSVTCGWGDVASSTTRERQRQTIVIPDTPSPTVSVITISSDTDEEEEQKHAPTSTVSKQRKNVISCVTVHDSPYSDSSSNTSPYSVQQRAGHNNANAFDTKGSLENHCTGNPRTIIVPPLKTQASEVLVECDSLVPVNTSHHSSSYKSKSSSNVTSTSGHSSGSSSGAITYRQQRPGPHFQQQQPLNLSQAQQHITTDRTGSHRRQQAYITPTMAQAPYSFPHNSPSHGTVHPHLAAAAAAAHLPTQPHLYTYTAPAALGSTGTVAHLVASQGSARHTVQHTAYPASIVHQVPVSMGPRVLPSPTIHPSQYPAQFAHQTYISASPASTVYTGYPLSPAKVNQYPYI
Sequence of Aurora kinase B (Homo sapiens) (Q96GD4 whole entry): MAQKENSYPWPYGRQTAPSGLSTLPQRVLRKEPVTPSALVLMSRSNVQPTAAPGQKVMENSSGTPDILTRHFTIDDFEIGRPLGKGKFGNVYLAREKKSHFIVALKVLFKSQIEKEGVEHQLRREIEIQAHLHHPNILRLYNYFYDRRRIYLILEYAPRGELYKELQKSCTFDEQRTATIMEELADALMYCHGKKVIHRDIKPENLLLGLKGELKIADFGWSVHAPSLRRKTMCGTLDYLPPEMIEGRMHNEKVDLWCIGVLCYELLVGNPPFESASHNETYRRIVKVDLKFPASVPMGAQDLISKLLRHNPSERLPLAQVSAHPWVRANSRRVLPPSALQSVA
Sequence of Dual specificity tyrosine-phosphorylation-regulated kinase 3 (Homo sapiens) (O43781 whole entry): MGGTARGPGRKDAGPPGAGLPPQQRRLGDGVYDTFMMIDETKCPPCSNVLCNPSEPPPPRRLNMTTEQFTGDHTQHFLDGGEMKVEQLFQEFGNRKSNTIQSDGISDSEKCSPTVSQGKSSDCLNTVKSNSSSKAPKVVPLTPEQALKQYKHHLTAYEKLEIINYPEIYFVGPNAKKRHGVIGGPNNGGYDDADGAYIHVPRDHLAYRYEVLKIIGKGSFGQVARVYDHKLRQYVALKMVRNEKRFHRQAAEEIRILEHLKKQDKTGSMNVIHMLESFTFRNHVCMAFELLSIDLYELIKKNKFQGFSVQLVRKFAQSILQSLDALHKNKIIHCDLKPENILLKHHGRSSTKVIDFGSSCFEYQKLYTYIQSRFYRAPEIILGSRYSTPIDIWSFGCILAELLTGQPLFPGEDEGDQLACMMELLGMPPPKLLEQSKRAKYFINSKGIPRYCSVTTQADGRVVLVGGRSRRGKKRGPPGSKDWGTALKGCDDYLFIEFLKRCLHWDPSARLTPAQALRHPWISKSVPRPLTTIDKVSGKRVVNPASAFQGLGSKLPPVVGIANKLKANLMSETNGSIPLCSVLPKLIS
Sequence of D(1A) dopamine receptor (P21728 whole entry): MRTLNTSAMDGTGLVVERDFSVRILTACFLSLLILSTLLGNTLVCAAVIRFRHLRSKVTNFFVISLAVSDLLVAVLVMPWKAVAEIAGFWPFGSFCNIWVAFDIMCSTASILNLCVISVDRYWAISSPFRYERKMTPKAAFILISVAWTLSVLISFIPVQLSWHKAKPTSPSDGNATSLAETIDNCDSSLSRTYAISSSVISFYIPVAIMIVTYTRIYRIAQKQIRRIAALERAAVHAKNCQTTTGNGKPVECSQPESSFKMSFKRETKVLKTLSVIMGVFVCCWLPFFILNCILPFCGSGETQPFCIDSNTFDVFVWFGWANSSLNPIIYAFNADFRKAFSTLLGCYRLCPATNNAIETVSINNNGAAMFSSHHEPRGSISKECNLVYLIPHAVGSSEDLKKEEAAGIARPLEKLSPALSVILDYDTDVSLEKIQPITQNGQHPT
Sequence of Serine/threonine-protein kinase PLK1 (Homo sapiens) (P53350 whole entry): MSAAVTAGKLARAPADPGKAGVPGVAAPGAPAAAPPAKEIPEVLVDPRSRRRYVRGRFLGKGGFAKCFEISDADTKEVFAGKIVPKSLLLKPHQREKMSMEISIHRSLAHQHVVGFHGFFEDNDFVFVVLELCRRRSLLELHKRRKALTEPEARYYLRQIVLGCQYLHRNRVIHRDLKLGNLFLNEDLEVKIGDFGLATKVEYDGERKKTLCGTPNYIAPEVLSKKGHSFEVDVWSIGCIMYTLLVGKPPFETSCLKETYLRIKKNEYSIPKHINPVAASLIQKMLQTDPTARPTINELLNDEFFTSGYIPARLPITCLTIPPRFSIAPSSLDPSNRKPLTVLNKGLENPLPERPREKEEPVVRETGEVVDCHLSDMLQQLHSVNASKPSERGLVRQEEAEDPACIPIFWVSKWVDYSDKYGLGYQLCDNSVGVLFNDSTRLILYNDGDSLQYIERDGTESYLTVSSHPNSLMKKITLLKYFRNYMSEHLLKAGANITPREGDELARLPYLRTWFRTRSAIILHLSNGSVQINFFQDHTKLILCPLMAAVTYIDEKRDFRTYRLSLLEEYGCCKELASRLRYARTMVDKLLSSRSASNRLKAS
Sequence of Ephrin type-A receptor 2 (Homo sapiens) (P29317 whole entry): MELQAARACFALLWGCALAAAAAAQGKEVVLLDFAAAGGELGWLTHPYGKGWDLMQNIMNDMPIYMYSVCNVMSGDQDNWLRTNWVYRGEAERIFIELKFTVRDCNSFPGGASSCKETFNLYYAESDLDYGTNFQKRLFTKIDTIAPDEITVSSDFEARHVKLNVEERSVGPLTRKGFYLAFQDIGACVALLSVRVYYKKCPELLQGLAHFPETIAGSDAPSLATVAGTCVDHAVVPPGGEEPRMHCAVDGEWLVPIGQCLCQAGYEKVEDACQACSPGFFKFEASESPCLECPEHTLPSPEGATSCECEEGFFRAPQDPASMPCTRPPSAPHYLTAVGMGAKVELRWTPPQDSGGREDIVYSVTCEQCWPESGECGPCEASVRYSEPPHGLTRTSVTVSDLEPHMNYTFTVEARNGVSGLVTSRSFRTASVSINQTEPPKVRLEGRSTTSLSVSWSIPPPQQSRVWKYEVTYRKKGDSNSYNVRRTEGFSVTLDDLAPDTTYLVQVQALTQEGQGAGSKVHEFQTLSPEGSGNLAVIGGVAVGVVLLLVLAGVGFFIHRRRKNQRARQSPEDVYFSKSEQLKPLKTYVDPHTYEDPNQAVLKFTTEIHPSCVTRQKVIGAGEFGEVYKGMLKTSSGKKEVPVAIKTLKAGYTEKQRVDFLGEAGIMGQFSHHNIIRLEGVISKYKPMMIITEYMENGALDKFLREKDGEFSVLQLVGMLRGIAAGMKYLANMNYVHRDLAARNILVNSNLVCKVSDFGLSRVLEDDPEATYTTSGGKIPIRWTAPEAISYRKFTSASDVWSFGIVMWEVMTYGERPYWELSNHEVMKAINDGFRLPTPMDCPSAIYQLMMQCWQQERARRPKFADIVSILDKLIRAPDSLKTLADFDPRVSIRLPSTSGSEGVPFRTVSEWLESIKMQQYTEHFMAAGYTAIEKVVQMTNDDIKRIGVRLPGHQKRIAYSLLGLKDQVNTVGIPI
Sequence of Alpha-2C adrenergic receptor (Homo sapiens) (P18825 whole entry): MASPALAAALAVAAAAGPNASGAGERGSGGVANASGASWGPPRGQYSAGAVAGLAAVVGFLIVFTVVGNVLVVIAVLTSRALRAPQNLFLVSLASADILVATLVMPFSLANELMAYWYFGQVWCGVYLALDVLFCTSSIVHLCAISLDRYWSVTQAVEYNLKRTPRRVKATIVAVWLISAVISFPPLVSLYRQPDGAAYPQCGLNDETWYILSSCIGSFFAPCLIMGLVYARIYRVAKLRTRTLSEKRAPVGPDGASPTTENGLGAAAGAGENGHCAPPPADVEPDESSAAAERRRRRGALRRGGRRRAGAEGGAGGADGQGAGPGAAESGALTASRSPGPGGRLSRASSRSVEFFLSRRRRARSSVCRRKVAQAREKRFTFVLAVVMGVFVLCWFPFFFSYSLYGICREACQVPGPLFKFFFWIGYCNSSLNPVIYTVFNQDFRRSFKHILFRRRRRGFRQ

## CN1CCN(C(=O)C(C)(C)c2ccc(C(=O)Nc3cn4cc(-c5cc(C(C)(C)C)cc(C(C)(C)C)c5)ccc4n3)cc2)CC1 [T3-CLK-N]
[1]
  inhibition: 88.5%
[2]
  inhibition: 83.7%
[3]
  Ki: 2.56 µM
[4]; read-out: Ki
  Ki: 1.39 µM
[4]; read-out: pKi (converted)
  Ki: 1.35 µM
Rattus norvegicus
  inhibition: -6.1%
[5]
  IC50: > 10 µM (not active)
D(1A) dopamine receptor; read-out: Ki
  Ki: 1.5 µM
D(1A) dopamine receptor; read-out: pKi (converted)
  Ki: 1.29 µM
[6]
  inhibition: 30.8%
[7]; read-out: Ki
  Ki: 0.798 µM
[7]; read-out: pKi (converted)
  Ki: 0.741 µM
[8]
  IC50: > 10 µM (not active)
[9]
  Ki: > 10 µM
  pKi: < 5
[10]
  Ki: 0.412 µM
[11]
  inhibition: 57%
[12]; read-out: Ki
  Ki: 0.99 µM
[12]; read-out: pKi (converted)
  Ki: 0.977 µM

## CN1CCN(C(=O)C(C)(C)c2ccc(C(=O)Nc3cn4cc(-c5ccncc5)ccc4n3)cc2)CC1 [T3-CLK]
[13]; Compound concentration 0.1 uM
  inhibition: 7.95%
[13]; Compound concentration 1.0 uM
  inhibition: 7.1%
[14]; Compound concentration 0.1 uM
  inhibition: -1.64%
[14]; Compound concentration 1.0 uM
  inhibition: -0.564%
[15]; Compound concentration 0.1 uM
  inhibition: 3.18%
[15]; Compound concentration 1.0 uM
  inhibition: -1.48%
[16]
  inhibition: -7.39%
[1]
  inhibition: 17.2%
[17]; Compound concentration 0.1 uM
  inhibition: 0.672%
[17]; Compound concentration 1.0 uM
  inhibition: 0.93%
[18]; Compound concentration 0.1 uM
  inhibition: 4.51%
[18]; Compound concentration 1.0 uM
  inhibition: 8.55%
[19]; Compound concentration 0.1 uM
  inhibition: -1.57%
[19]; Compound concentration 1.0 uM
  inhibition: 3.62%
[20]; Compound concentration 0.1 uM
  inhibition: 25.3%
[20]; Compound concentration 1.0 uM
  inhibition: 42.4%
[2]
  inhibition: 2.61%
[21]; Compound concentration 0.1 uM
  inhibition: 5.17%
[21]; Compound concentration 1.0 uM
  inhibition: 9.37%
[22]; [40]
  inhibition: -1.82%
[22]; Compound concentration 1.11 uM
  inhibition: 3.7%
[23]
  inhibition: -8.24%
[5]
  IC50: 0.067 µM
[24]; Compound concentration 0.1 uM
  inhibition: 0.551%
[24]; Compound concentration 1.0 uM
  inhibition: -3.41%
[25]; Compound concentration 0.1 uM
  inhibition: 7.85%
[25]; Compound concentration 1.0 uM
  inhibition: 2.48%
[26]; Compound concentration 0.1 uM
  inhibition: 2.74%
[26]; Compound concentration 1.0 uM
  inhibition: 4.01%
[27]; Compound concentration 0.1 uM
  inhibition: -6.12%
[27]; Compound concentration 1.0 uM
  inhibition: -4.71%
[28]; Compound concentration 0.1 uM
  inhibition: -2.92%
[28]; Compound concentration 1.0 uM
  inhibition: 4.31%
[29]; Compound concentration 0.1 uM
  inhibition: 6.77%
[29]; Compound concentration 1.0 uM
  inhibition: 16.1%
[30]; Compound concentration 0.1 uM
  inhibition: 5.63%
[30]; Compound concentration 1.0 uM
  inhibition: 6.05%
[31]; [40]
  inhibition: 1.82%
[31]; Compound concentration 1.11 uM
  inhibition: 5.16%
[32]; Compound concentration 0.1 uM
  inhibition: 1.84%
[32]; Compound concentration 1.0 uM
  inhibition: 0.79%
[33]; Compound concentration 0.1 uM
  inhibition: 4.26%
[33]; Compound concentration 1.0 uM
  inhibition: 9.19%
[34]; Compound concentration 0.1 uM
  inhibition: -3.6%
[34]; Compound concentration 1.0 uM
  inhibition: -1.82%
[35]; Compound concentration 0.1 uM
  inhibition: 4.88%
[35]; Compound concentration 1.0 uM
  inhibition: 6.39%
[36]; Compound concentration 0.1 uM
  inhibition: 3.58%
[36]; Compound concentration 1.0 uM
  inhibition: 3.6%
[37]; Compound concentration 0.1 uM
  inhibition: 8.71%
[37]; Compound concentration 1.0 uM
  inhibition: 17.2%
[38]; [40]
  inhibition: 62.7%
[38]; Compound concentration 1.11 uM
  inhibition: 94.1%
[39]; Compound concentration 0.1 uM
  inhibition: -4.09%
[39]; Compound concentration 1.0 uM
  inhibition: -6.26%
